The text below walks through data of PMC2753600 (The FEBS journal, 2009).

Residue numbers refer to the chain shown, from its start. Structures can show the parent of a compound that is named as a salt. Where two headings read alike, the source gives them in different places.

Assay type in all cases: biochemical
The target in assay [1] is T1, purified human MAO A Ser209Glu mutant (Homo sapiens, UniProt P21397, S209E).
T1 sequence (P21397 1-527 S209E): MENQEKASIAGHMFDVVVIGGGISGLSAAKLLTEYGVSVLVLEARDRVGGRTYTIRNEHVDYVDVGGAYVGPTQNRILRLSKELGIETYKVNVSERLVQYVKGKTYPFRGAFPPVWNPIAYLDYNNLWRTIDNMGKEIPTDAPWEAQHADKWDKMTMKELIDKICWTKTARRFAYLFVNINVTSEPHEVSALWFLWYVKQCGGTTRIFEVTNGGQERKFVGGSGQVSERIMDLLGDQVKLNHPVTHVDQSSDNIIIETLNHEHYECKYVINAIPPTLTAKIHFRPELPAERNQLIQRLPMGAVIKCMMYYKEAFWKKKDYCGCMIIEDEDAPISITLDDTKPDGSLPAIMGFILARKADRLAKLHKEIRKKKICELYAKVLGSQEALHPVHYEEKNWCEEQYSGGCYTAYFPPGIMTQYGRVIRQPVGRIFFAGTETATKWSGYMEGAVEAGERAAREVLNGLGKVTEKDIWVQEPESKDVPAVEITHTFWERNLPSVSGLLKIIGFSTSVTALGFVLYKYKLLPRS
As to the kind of experiment: Competitive inhibition of purified human MAO A Ser209Glu mutant. The note with it: for lower affinity for the Ser209Glu mutant than for the wild-type enzyme: purified Ser209Glu vs purified wild-type MAO A.

In assay [2] the target is T2, membrane-bound wild-type MAO A (Homo sapiens, UniProt P21397).
T2 sequence (P21397 1-527): T1 sequence (P21397 1-527 S209E) with E209S
As to the kind of experiment: Steady-state kinetics of membrane-bound wild-type MAO A. The settings on record: 50 mM potassium phosphate pH 7.5.

The target in assay [3] is T3, membrane-bound MAO A Ser209Glu mutant (Homo sapiens, UniProt P21397, S209E).
T3 sequence (P21397 1-527 S209E): T1 sequence (P21397 1-527 S209E)
The assay is described as follows: Steady-state kinetics of membrane-bound MAO A Ser209Glu mutant. The note with it: 50 mM potassium phosphate pH 7.5.

The target of assay [4] is T4, purified wild-type human MAO A (Homo sapiens, UniProt P21397).
T4 sequence (P21397 1-527): T1 sequence (P21397 1-527 S209E) with E209S
As to the kind of experiment: Competitive inhibition of purified wild-type human MAO A.

In assay [5] the target is T5, purified human MAO A Ser209Ala mutant (Homo sapiens, UniProt P21397, S209A).
T5 sequence (P21397 1-527 S209A): T1 sequence (P21397 1-527 S209E) with E209A
The assay is described as follows: Competitive inhibition of purified human MAO A Ser209Ala mutant.

As for `Cc1nccc2c1[nH]c1ccccc12` [Harmane], the “binding to the Ser209Glu mutant compared with wild-type or Ser209Ala MAO A” value in assay [1] (purified enzymes) is “much more weakly”.

For the compound `O=C1Nc2ccccc2C1=O` [Isatin, isatin], in assay [1], the “lower affinity for the Ser209Glu mutant than for the wild-type enzyme” value (“lower affinity” below) is 20 fold.

As for `CC(C)(N)Cc1ccccc1` [Phentermine, phentermine], in assay [1], the “lower affinity” value is 13 fold.

A word on the Km: it is the substrate concentration at which the rate is half of its maximum. As a reminder, the kcat is the number of substrate molecules converted per active site and unit of time at saturation. As to `NCCc1ccccc1` [Phenylethylamine, β-phenylethylamine], in assay [2], the Km amounted to 470 ± 40 µM and the kcat was 0.8095 ± 0.0177 s⁻¹. In assay [3], the Km was found to be 850 ± 70 µM and the kcat came out at 1.068 ± 0.0238 s⁻¹.

A word on the Ki: it is a dissociation constant, usually derived from enzyme kinetics or from competition with a known ligand. Read a high Ki as weaker binding. With `Cc1ccc2c(c1)c1c3n2CCNC3CCC1` (stereo not drawn) [Pirlindole Mesylate, pirlindole mesylate], the Ki in assay [4] came to 0.92 ± 0.04 µM; in assay [5], 0.88 ± 0.18 µM; in assay [1] it was 21.5 ± 1.36 µM.

Consider `c1cc2c(cc1C1CCCCC1)c1c3n2CCNC3CCC1` (stereo not drawn) [Tetrindole Mesylate, tetrindole mesylate], for which the Ki in assay [4] (competitive inhibition constant, purified wild-type human MAO A) worked out at 5.27 ± 0.24 µM.

In the case of `C[C@H](N)Cc1ccccc1` [d-Amphetamine, d-amphetamine], the results for the Ki in assay [4], in assay [5] and in assay [1] were 3.69 ± 0.45 µM, 4.72 ± 0.63 µM and 609 ± 31.6 µM, respectively. Also, in assay [1], the “lower affinity” value is reported as 160 fold.
